Measured values taken from the NIST ThermoML archive (doi:10.1021/je300941v).

Legend:
[1] = xn = mol fraction of the nth substance listed; details: 101 kPa, Liquid, Vibrating tube method
[2] = 101.33 kPa, Liquid, Vibrating tube method

CCCC[N+]1(C)CCCC1.O=S(=O)([N-]S(=O)(=O)C(F)(F)F)C(F)(F)F + CN(C)C=O
mass density [kg/m3], [1]
Details | x1 = 0.0912 | x1 = 0.1871 | x1 = 0.2922 | x1 = 0.3783 | x1 = 0.4845 | x1 = 0.5809 | x1 = 0.6768 | x1 = 0.7744 | x1 = 0.8686
293.15 K | 1074.98 | 1161.1 | 1224.53 | 1262.14 | 1298.31 | 1324.74 | 1346.86 | 1366.1 | 1381.39
298.15 K | 1070.09 | 1156.23 | 1219.62 | 1257.32 | 1293.53 | 1319.99 | 1342.16 | 1361.38 | 1376.73
303.15 K | 1065.22 | 1151.35 | 1214.77 | 1252.53 | 1288.82 | 1315.37 | 1337.55 | 1356.72 | 1372.14
308.15 K | 1060.4 | 1146.5 | 1210 | 1247.8 | 1284.1 | 1310.7 | 1332.9 | 1352 | 1367.6
313.15 K | 1055.43 | 1141.58 | 1205.17 | 1243.01 | 1279.29 | 1306.04 | 1328.25 | 1347.28 | 1363.02
318.15 K | 1050.48 | 1136.63 | 1200.26 | 1238.22 | 1274.53 | 1301.32 | 1323.54 | 1342.91 | 1358.3
323.15 K | 1045.36 | 1131.55 | 1195.32 | 1233.32 | 1269.65 | 1296.48 | 1318.83 | 1338.2 | 1353.61

CNC=O [N-methylformamide]
[2]
Details | mass density [kg/m3]
293.15 K | 1003.59
298.15 K | 999.19
303.15 K | 994.75
308.15 K | 990.33
313.15 K | 985.78
318.15 K | 981.23
323.15 K | 976.57

CN(C)C=O [dimethylformamide]
[2]
Details | mass density [kg/m3]
293.15 K | 948.79
298.15 K | 943.87
303.15 K | 938.98
308.15 K | 934.07
313.15 K | 929.11
318.15 K | 924.04
323.15 K | 918.91
